Here are results for 8 molecules from patent US9795140B2, “Molecules having pesticidal utility, and intermediates, compositions, and processes, related thereto” (priority 2015, dated 2017).

Common to all, as to assay type: in vivo
Data set [1] concerns Cabbage Looper (Trichoplusia ni, TRIPNI). Description: Bioassay on Cabbage Looper (CL), 128-well diet tray assay. The note with it: 168 h, read-out: CL % Control (or Mortality) rating. In outline: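 Percent larval mortality, averaged across eight replicate wells, was scored after 5–7 days at 25 °C with a 14:10 photoperiod. Each well held 1 mL diet surface-treated at 50 μg/cm^2 with test molecule from a 90:10 acetone-water solution, then dried. Wells were infested with one to five second-instar cabbage loopers.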

Data set [2] concerns Yellow Fever Mosquito (Aedes aegypti, AEDSAE). Description: Bioassay on Yellow Fever Mosquito (YFM) larvae, 96-well plate. Conditions: about 1 day-old larvae, room temperature, 3 days, scored on mortality. In outline:
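Compound stocks at 4000 ppm in DMSO were diluted with 90:10 water/acetone, and 15 μL aliquots were dispensed into six replicate plates. About 1-day-old larvae in liver-powder water were added per well. Plates were covered and held at room temperature for 3 days before each well was scored for mortality.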

Data set [3] concerns Beet Armyworm (Spodoptera exigua, LAPHEG). Description: Bioassay on Beet Armyworm (BAW), 128-well diet tray assay. Conditions: 168 h, read-out: BAW % Control (or Mortality) rating. In outline:
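Test molecule dissolved in acetone-water 90:10 is applied at 50 μg/cm^2 onto artificial diet and allowed to dry. Second instar larvae, one to five per well, are then added, and trays are vented and kept at 25° C. for five to seven days before mortality is scored.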

Setting [4] is: 50 μg/cm^2 on artificial diet, second instar larvae, 25° C., five to seven days, average of eight wells.

Like-named read-outs stand apart in the source and are kept apart here.

By mortality is commonly meant the percentage killed. As to `O=C(NCC(F)(F)F)c1cc(NC(=O)[C@H]2[C@H](c3ccc(F)c(F)c3)C2(Cl)Cl)ccc1Cl` (relative stereo) [F108, 2-chloro-5-(trans-2,2-dichloro-3-(3,4-difluorophenyl)cyclopropane-1-carboxamido)-N-(2,2,2-trifluoroethyl)benzamide], the mortality at 50 µg/cm2 in data set [1] and in data set [3] was 50 to 100% throughout. Also, the “YFM % Control (or Mortality) rating” value in data set [2] was “A (80-100)”.

In the case of `O=C(NCCn1cccn1)c1cc(NC(=O)[C@H]2[C@H](c3cc(Cl)cc(Cl)c3)C2(Cl)Cl)ccc1Cl` (relative stereo) [PF13, trans-N-(2-(1H-Pyrazol-1-yl)ethyl)-2-chloro-5-(2,2-dichloro-3-(3,5-dichlorophenyl)cyclopropane-1-carboxamido)benzamide], the mortality at 50 µg/cm2 in data set [1] (setting [4]) and in data set [3] (setting [4]) was 50 to 100% each time. Besides, the “YFM % Control (or Mortality) rating” value in data set [2] was “A (80-100)”.

On to `O=C(NCC(F)(F)F)c1cc(NC(=O)[C@H]2[C@H](c3ccc(C(F)F)c(Cl)c3)C2(Cl)Cl)ccc1Cl` (relative stereo) [F132, 2-Chloro-5-(trans-2,2-dichloro-3-(3-chloro-4-(difluoromethyl)phenyl)cyclopropane-1-carboxamido)-N-(2,2,2-trifluoroethyl)benzamide], for which the mortality at 50 µg/cm2 in data set [1] (setting [4]) and in data set [3] (setting [4]) was 50 to 100% throughout. Moreover, the “YFM % Control (or Mortality) rating” value in data set [2] is recorded as “A (80-100)”.

In the case of `CC(C)(NC(=O)c1cc(NC(=O)[C@H]2[C@H](c3cc(Cl)cc(Cl)c3)C2(Cl)Cl)ccc1Cl)c1ccc(F)cc1` (relative stereo) [F97, 2-Chloro-5-(trans-2,2-dichloro-3-(3,5-dichlorophenyl)cyclopropane-1-carboxamido)-N-(2-(4-fluorophenyl)propan-2-yl)benzamide], the mortality at 50 µg/cm2 in data set [1] (setting [4]) and in data set [3] (setting [4]) was 50 to 100% each time. Besides, in data set [2], the “YFM % Control (or Mortality) rating” value is “A (80-100)”.

Regarding `CCNC(=O)c1cc(NC(=O)[C@H]2[C@H](c3cc(Cl)c(OC)c(Cl)c3)C2(Cl)Cl)ccc1Cl` (relative stereo) [F85, trans-2-Chloro-5-(2,2-dichloro-3-(3,5-dichloro-4-methoxyphenyl)cyclopropane-1-carboxamido)-N-ethylbenzamide], the mortality at 50 µg/cm2 in data set [1] (setting [4]) and in data set [3] (setting [4]) was 50 to 100% in each case. Further, the “YFM % Control (or Mortality) rating” value in data set [2] is “B (More than 0-Less than 80)”.

For the molecule `O=C(NCC(F)(F)F)c1cc(NC(=O)[C@H]2[C@H](c3ccc(F)c(C(F)(F)F)c3)C2(Cl)Cl)ccc1Cl` (relative stereo) [F119, 2-Chloro-5-(trans-2,2-dichloro-3-(4-fluoro-3-(trifluoromethyl)phenyl)cyclopropane-1-carboxamido)-N-(2,2,2-trifluoroethyl)benzamide], the mortality at 50 µg/cm2 in data set [1] (setting [4]) and in data set [3] (setting [4]) was 50 to 100% in each case. Further, the “YFM % Control (or Mortality) rating” value in data set [2] is reported as “A (80-100)”.

On to `O=C(NCC(F)(F)C(F)(F)C(F)(F)F)c1cc(NC(=O)[C@H]2[C@H](c3cc(Cl)cc(Cl)c3)C2(Cl)Cl)ccc1Cl` (relative stereo) [F61, trans-2-Chloro-5-(2,2-dichloro-3-(3,5-dichlorophenyl)cyclopropane-1-carboxamido)-N-(2,2,3,3,4,4,4-heptafluorobutyl)benzamide], for which the mortality at 50 µg/cm2 in data set [1] (setting [4]) and in data set [3] (setting [4]) was 50 to 100% in each case. The “YFM % Control (or Mortality) rating” value in data set [2] is given as “D (No activity noticed in this bioassay)”.

On to `COc1c(Cl)cc([C@H]2[C@H](C(=O)Nc3ccc(Cl)c(C(=O)NCCC(F)(F)F)c3)C2(Cl)Cl)cc1Cl` (relative stereo) [F88, trans-2-Chloro-5-(2,2-dichloro-3-(3,5-dichloro-4-methoxyphenyl)cyclopropane-1-carboxamido)-N-(3,3,3-trifluoropropyl)benzamide], for which the mortality at 50 µg/cm2 in data set [1] (setting [4]) and in data set [3] (setting [4]) was 50 to 100% throughout. Besides, the “YFM % Control (or Mortality) rating” value in data set [2] is given as “B (More than 0-Less than 80)”.
